According to US4321381A, “Ergot derivatives” (Farmitalia Carlo Erba S.p.A., priority 1978, dated 1982):

Key:
normotensive rats = assay: Blood pressure and heart rate in the conscious normotensive rat (NR); format: in vivo; conditions: 5 mg/kg os
Protocol: Blood pressure recordings have been made in conscious normotensive unrestrained rats weighing approximately 300 g, via a catheter chronically inserted into the left common carotid artery. Implantation of arterial cannula was made under sodium pentobarbital anesthesia (50 mg/kp i.p.) A 1 cm long incision was made through the previously shaved ventral surface of the neck and the tissues overlying the trachea parted by blunt dissection to reveal the carotid artery. The polyethylene catheter used was made with PE 50 tubing, previously filled with saline containing 250 I.U./ml heparin. The tip of the cannula was pushed at least 2 cm inside the vessel toward the heart. The cannula was then firmly tied and passed beneath the skin to emerge from a small incision in the back of the neck. During the post-operative period and before the start of each recording session, the cannula was flushed through daily with saline containing heparin (250 I.U./ml). The experiments were performed two days after surgery. Drugs were administered by gastric gavage.

[1] = tested on: spontaneously hypertensive male rats, strain MHS; assay: Anti-hypertensive activity in the spontaneously hypertensive rat (MHS): blood pressure and heart rate at the tail; format: in vivo
Protocol: 1. Spontaneously Hypertensive Rat (MHS)
Four spontaneously hypertensive male rats, strain MHS, weight 250 to 300 g for each group were used. The animals were treated for four consecutive days. The drugs were administered by gastric gavage while suspended in 5% arabic gum (0.2 ml/100 g body weight), and blood pressure (BP) and heart rate (HR) were measured at the tail by BP Recorder W+W. Blood pressure and heart rate were measured on the first and fourth day of treatment 1 hour before and 1 and 5 hours after drug administration.

[2] = Acute toxicity (LD50) in mice; format: in vivo, mouse; conditions: mouse, in vivo; male mice; oral; observed for seven days
Description: Evaluation of the Toxicity (LD50)
Ten male mice for each group were orally treated with drugs at different dose levels for the determination of lethal dose 50 (LD50).

SMILES	Change in Blood Pressure after Treatment, 30' (normotensive rats) [mm Hg]	Change in heart rate after treatment, 30' (normotensive rats)	Change in Blood Pressure after Treatment, 60' (normotensive rats) [mm Hg]	Change in heart rate after treatment, 60' (normotensive rats)	Change in Blood Pressure after Treatment, 120' (normotensive rats) [mm Hg]	Change in heart rate after treatment, 120' (normotensive rats)	Change in Blood Pressure after Treatment, 180' (normotensive rats) [mm Hg]	Change in heart rate after treatment, 180' (normotensive rats)	Change in Blood Pressure after Treatment, 240' (normotensive rats) [mm Hg]	Change in heart rate after treatment, 240' (normotensive rats)	Change in Blood Pressure after Treatment, 360' (normotensive rats) [mm Hg]	Change in heart rate after treatment, 360' (normotensive rats)	Change in Blood Pressure after Treatment, 24h (normotensive rats)	Change in heart rate after treatment, 24h (normotensive rats)	Change in BP, 1 hr after dose, first day ([1]; 2 mg/kg os)	Change in HR, 1 hr after dose, first day ([1]; 2 mg/kg os)	Change in HR, 5 hr after dose, first day ([1]; 2 mg/kg os)	Change in BP, 5 hrs after dose, first day ([1]; 2 mg/kg os)	Change in BP, 1 hr after dose, fourth day ([1]; 2 mg/kg os)	Change in HR, 1 hr after dose, fourth day ([1]; 2 mg/kg os)	other results
NNc1nncc2ccccc12 [Hydralazine, hydralazine, reference compound]	-19	+70 b/min	-13	+40 b/min	-10	+21 b/min	-7	+9 b/min	-5	+21 b/min	-7	+12 b/min	0 mm Hg	+3 b/min	+2 mm Hg	+10 b/min	-28 b/min	+18 mm Hg	+7 mm Hg	+43 b/min	Change in HR, 5 hr after dose, fourth day ([1]; 2 mg/kg os): +23 b/min; Change in BP, 5 hrs after dose, fourth day ([1]; 2 mg/kg os): +15 mm Hg; Change in BP, 1 hr after dose, first day ([1]; 5 mg/kg os): -52 mm Hg; Change in HR, 1 hr after dose, first day ([1]; 5 mg/kg os): -45 b/min; Change in HR, 5 hr after dose, first day ([1]; 5 mg/kg os): +12 b/min; Change in BP, 5 hrs after dose, first day ([1]; 5 mg/kg os): -38 mm Hg; Change in BP, 1 hr after dose, fourth day ([1]; 5 mg/kg os): -7 mm Hg; Change in HR, 1 hr after dose, fourth day ([1]; 5 mg/kg os): +10 b/min; Change in HR, 5 hr after dose, fourth day ([1]; 5 mg/kg os): +12 b/min; Change in BP, 5 hrs after dose, fourth day ([1]; 5 mg/kg os): -8 mm Hg; LD50 at 168 h [2]: 122 mg/kg
CCNC(=O)C(C#N)C[C@@H]1C[C@@H]2c3cccc4[nH]cc(c34)C[C@H]2N(C)C1 (stereo partly drawn) [Example 1138, 2-Cyano-3-(6'-methylergoline-8'β)-N-ethylpropionamide]	-10	-15 b/min	-20	-30 b/min	-15	-30 b/min	-10	-15 b/min	-10	0 b/min	0	+5 b/min	0 mm Hg	+10 b/min	-23 mm Hg	-25 b/min	-10 b/min	-14 mm Hg	-30 mm Hg	-47 b/min	Change in HR, 5 hr after dose, fourth day ([1]; 2 mg/kg os): -12 b/min; Change in BP, 5 hrs after dose, fourth day ([1]; 2 mg/kg os): -15 mm Hg; Change in BP, 1 hr after dose, first day ([1]; 5 mg/kg os): -25 mm Hg; Change in HR, 1 hr after dose, first day ([1]; 5 mg/kg os): -8 b/min; Change in HR, 5 hr after dose, first day ([1]; 5 mg/kg os): +5 b/min; Change in BP, 5 hrs after dose, first day ([1]; 5 mg/kg os): -9 mm Hg; Change in BP, 1 hr after dose, fourth day ([1]; 5 mg/kg os): -26 mm Hg; Change in HR, 1 hr after dose, fourth day ([1]; 5 mg/kg os): -20 b/min; Change in HR, 5 hr after dose, fourth day ([1]; 5 mg/kg os): -25 b/min; Change in BP, 5 hrs after dose, fourth day ([1]; 5 mg/kg os): -11 mm Hg; LD50 at 168 h [2]: 500 mg/kg
CN1C[C@H](CC(C#N)C(N)=O)C[C@@H]2c3cccc4[nH]c(Br)c(c34)C[C@H]21 (stereo partly drawn) [Example 1139, 2-Cyano-3-(2-bromo-6'-methylergoline-8'β)-propionamide]	-5	0 b/min	-12	+10 b/min	-12	+10 b/min	-10	-5 b/min	-5	0 b/min	0	+15 b/min	+2 mm Hg	0 b/min	-13 mm Hg	+7 b/min	+12 b/min	-23 mm Hg	-18 mm Hg	+47 b/min	Change in HR, 5 hr after dose, fourth day ([1]; 2 mg/kg os): +35 b/min; Change in BP, 5 hrs after dose, fourth day ([1]; 2 mg/kg os): -12 mm Hg; Change in BP, 1 hr after dose, first day ([1]; 5 mg/kg os): -25 mm Hg; Change in HR, 1 hr after dose, first day ([1]; 5 mg/kg os): +28 b/min; Change in HR, 5 hr after dose, first day ([1]; 5 mg/kg os): +13 b/min; Change in BP, 5 hrs after dose, first day ([1]; 5 mg/kg os): -24 mm Hg; Change in BP, 1 hr after dose, fourth day ([1]; 5 mg/kg os): -12 mm Hg; Change in HR, 1 hr after dose, fourth day ([1]; 5 mg/kg os): -10 b/min; Change in HR, 5 hr after dose, fourth day ([1]; 5 mg/kg os): -12 b/min; Change in BP, 5 hrs after dose, fourth day ([1]; 5 mg/kg os): -13 mm Hg; LD50 at 168 h [2]: 125 mg/kg
CN1C[C@H](CC(C#N)C(=O)NCc2ccccc2)C[C@@H]2c3cccc4[nH]cc(c34)C[C@H]21 (stereo partly drawn) [Example 1131, 2-Cyano-3-(6'-methylergoline-8'β)-N-benzylpropionamide]	-22	-20 b/min	-22	-30 b/min	-23	-20 b/min	-20	-20 b/min	-19	-10 b/min	-10	+10 b/min	0 mm Hg	+10 b/min	-26 mm Hg	-20 b/min	+5 b/min	-9 mm Hg	-22 mm Hg	-55 b/min	Change in HR, 5 hr after dose, fourth day ([1]; 2 mg/kg os): +5 b/min; Change in BP, 5 hrs after dose, fourth day ([1]; 2 mg/kg os): -25 mm Hg; Change in BP, 1 hr after dose, first day ([1]; 5 mg/kg os): -48 mm Hg; Change in HR, 1 hr after dose, first day ([1]; 5 mg/kg os): -18 b/min; Change in HR, 5 hr after dose, first day ([1]; 5 mg/kg os): +10 b/min; Change in BP, 5 hrs after dose, first day ([1]; 5 mg/kg os): -43 mm Hg; Change in BP, 1 hr after dose, fourth day ([1]; 5 mg/kg os): -17 mm Hg; Change in HR, 1 hr after dose, fourth day ([1]; 5 mg/kg os): +18 b/min; Change in HR, 5 hr after dose, fourth day ([1]; 5 mg/kg os): -8 b/min; Change in BP, 5 hrs after dose, fourth day ([1]; 5 mg/kg os): -16 mm Hg; LD50 at 168 h [2]: > 1000 mg/kg
